Here are results for three compounds from patent US20120077852A1, “HYDROXYPYRIDINONES FOR THE LOCAL TREATMENT OF SKIN MICROCIRCULATORY DISORDERS” (priority 2002, published 2012).

The conditions of data set [1]: Berdoukas et al, Lancet 1993; cited from earlier work.
Data set [2] can be described thus: Kow distribution coefficient, partition between water and 1-octanol. Format: physicochemical. Conditions: distribution coefficient between water and 1-octanol of the hydroxypyridinone HCl addition salt, according Dubbin et al. From the text:
A key feature is the hydro-lipophilic property, which basically correlate with its distribution coefficients (“Kow”).

The conditions of data set [3]: Kamiyama et al 1981; cited from earlier work.
For data set [4] the following is noted: relative to deferoxamine; cited from earlier work.

Turning to `Cc1c(O)c(=O)ccn1C` [Example 1, 1,2-dimethyl-3-hydroxy-4-pyridinone], the “cellular uptake versus deferoxamine” value in data set [1] is given as “significantly higher than that of deferoxamine”. The Kow in data set [2] is given as 0.17. For the same compound, the “lipid peroxidation, hydroxyl radical production, free radical-mediated cell damage” value in data set [3] was “dramatically decrease”. In addition, the “partition coefficient, times that of deferoxamine” value in data set [4] is 21 times.

As for `CCc1c(O)c(=O)ccn1C` [Example 11, 1-methyl-2-ethyl-3-hydroxy-4-pyridinone], the Kow in data set [2] was 0.63.

Turning to `CCc1c(O)c(=O)ccn1CC` [Example 12, 1,2-diethyl-3-hydroxy-4-pyridinone], the Kow in data set [2] was found to be 1.78.
